# Values of other authors, collected in patent publication US20230390254A1, “PHARMACEUTICAL COMPOSITIONS OF UBROGEPANT AND PROCESS FOR PREPARATION THEREOF” (Aurobindo Pharma Ltd, priority 2022, published 2023).
# Like-named read-outs stand apart in the source and are kept apart here.
# Assays:
# [1] = not given; remark: listed apart in the source
# [2] = disclosed in U.S. Pat. No. 10,117,836
structure (smiles),measurement,setting,value
"C[C@@H]1[C@H](c2ccccc2)C[C@H](NC(=O)c2cnc3c(c2)C[C@@]2(C3)C(=O)Nc3ncccc32)C(=O)N1CC(F)(F)F [Ubrogepant, (3′S)—N-((3 S,5S,6R)-6-methyl-2-oxo-5-phenyl-1-(2,2,2trifluoroethyl)piperidin-3-yl)-2′-oxo-1′,2′,5,7 tetrahydrospiro[cyclopenta[b]pyridine-6,3′-pyrrolo[2,3b]pyridine]-3-carboxamide]",solubility,in acetone,freely soluble
same,solubility,in acetonitrile,freely soluble
same,solubility,in ethanol,freely soluble
same,solubility,in methanol,freely soluble
same,solubility,in water,insoluble
same,solubility (BCS),[1],low solubility
same,aqueous solubility,[2],poor aqueous solubility
